# Measurements published in ChEMBL document CHEMBL5608163, “Structure modification of anoplin for fighting resistant bacteria” (Eur J Med Chem, 2024).
# Peptide text beside a SMILES is read from it. * marks the point of attachment. Undecanoyl = CCCCCCCCCCC(=O)*; Nonanoyl = CCCCCCCCC(=O)*
# What was measured:
# Staphylococcus aureus [1] = assay: Antibacterial activity against Staphylococcus aureus ATCC 25923 assessed as reduction in bacterial growth measured after 18 to 24 hrs by CLSI protocol-based Mueller-Hinton broth dilution method; type: functional; conditions: time 18-24 hrs
# Bacillus subtilis [2] = assay: Antibacterial activity against Bacillus subtilis ATCC 23857 assessed as reduction in bacterial growth measured after 18 to 24 hrs by CLSI protocol-based Mueller-Hinton broth dilution method; type: functional; conditions: time 18-24 hrs
# Escherichia coli [3] = assay: Antibacterial activity against multi-drug resistant Escherichia coli clinical isolate 850 assessed as reduction in bacterial growth measured after 18 to 24 hrs by CLSI protocol-based Mueller-Hinton broth dilution method; type: functional; conditions: time 18-24 hrs
# Pseudomonas aeruginosa [4] = assay: Antibacterial activity against multi-drug resistant Pseudomonas aeruginosa clinical isolate 119 assessed as reduction in bacterial growth measured after 18 to 24 hrs by CLSI protocol-based Mueller-Hinton broth dilution method; type: functional; conditions: time 18-24 hrs
# Klebsiella pneumoniae = assay: Antibacterial activity against Klebsiella pneumoniae ATCC 700603 assessed as reduction in bacterial growth measured after 18 to 24 hrs by CLSI protocol-based Mueller-Hinton broth dilution method; type: functional; conditions: time 18-24 hrs
# Acinetobacter baumannii = assay: Antibacterial activity against multi-drug resistant Acinetobacter baumannii clinical isolate 9840 assessed as reduction in bacterial growth measured after 18 to 24 hrs by CLSI protocol-based Mueller-Hinton broth dilution method; type: functional; conditions: time 18-24 hrs
# [5] = Hemolytic activity in human RBC; type: toxicity, cell-based, Erythrocyte; conditions: red blood cells
# Staphylococcus aureus [6] = assay: Antibacterial activity against Staphylococcus aureus ATCC 29213 assessed as bacterial growth inhibition measured after 18 hrs by CLSI protocol based two-fold serial microdilution method; type: functional
# Escherichia coli [7] = assay: Antibacterial activity against Escherichia coli ATCC 25922 assessed as reduction in bacterial growth; type: functional
# [8] = system: Mycolicibacterium smegmatis; assay: Antibacterial activity against Mycobacterium smegmatis mc2 155 assessed as bacterial growth inhibition; type: functional
# Bacillus subtilis [9] = assay: Antibacterial activity against Bacillus subtilis assessed as bacterial growth inhibition; type: functional
# Pseudomonas aeruginosa [10] = assay: Antibacterial activity against Pseudomonas aeruginosa PAO1 assessed as bacterial growth inhibition; type: functional
# Escherichia coli [11] = assay: Antibacterial activity against Escherichia coli DH5a assessed as bacterial growth inhibition; type: functional
# Zymomonas mobilis = assay: Antibacterial activity against Zymomonas mobilis ATCC 10988 assessed as bacterial growth inhibition; type: functional
# [12] = Hemolytic activity in human erythrocytes measured after 1 hrs by microplate reader analysis; type: toxicity, cell-based, Erythrocyte
# Staphylococcus aureus [13] = assay: Antibacterial activity against methicillin resistant Staphylococcus aureus ATCC 33591 assessed as inhibition of bacterial growth incubated for 16 to 20 hrs by broth micro-dilution method; type: functional; conditions: time 16-20 hrs
# Enterococcus faecium = assay: Antibacterial activity against Vancomycin resistant Enterococcus faecium ATCC 700221 assessed as inhibition of bacterial growth incubated for 16 to 20 hrs by broth micro-dilution method; type: functional; conditions: time 16-20 hrs
structure (smiles),measurement,setting,value
CC[C@H](C)[C@H](NC(=O)[C@H](CCCNC(=N)N)NC(=O)[C@H](CCCCN)NC(=O)[C@@H](CC(C)C)NC(=O)[C@H](CC(C)C)NC(=O)CNC(C)=O)C(=O)N[C@@H](CCCCN)C(=O)N[C@H](C(=O)N[C@H](CC(C)C)C(=O)N[C@H](CC(C)C)C(=O)NC(Cc1cn(CCCC[C@H](NC(=O)[C@H](CC(C)C)NC(=O)[C@H](CC(C)C)NC(=O)[C@@H](NC(=O)[C@@H](CCCCN)NC(=O)[C@@H](NC(=O)[C@H](CCCNC(=N)N)NC(=O)[C@@H](CCCCN)NC(=O)[C@H](CC(C)C)NC(=O)[C@H](CC(C)C)NC(=O)CNC(C)=O)[C@@H](C)CC)[C@@H](C)O)C(N)=O)nn1)C(N)=O)[C@@H](C)O (some centres not stated),MIC,Staphylococcus aureus [1],32 µM
same,MIC,Bacillus subtilis [2],2 µM
same,MIC,Escherichia coli [3],4 µM
same,MIC,Pseudomonas aeruginosa [4],16 µM
same,MIC,Klebsiella pneumoniae,16 µM
same,MIC,Acinetobacter baumannii,2 µM
CC[C@H](C)[C@H](NC(=O)[C@H](Cc1ccccc1)NC(=O)[C@H](CCCCN)NC(=O)[C@H](CC(C)C)NC(=O)[C@H](CC(C)C)NC(=O)CN)C(=O)N[C@@H](CCCCN)C(=O)N[C@H](C(=O)N[C@@H](CC(C)C)C(=O)N[C@@H](CC(C)C)C(N)=O)[C@@H](C)O (H-GLLKFIKTLL-NH2),HC50,[5],67.3 µM
same,MIC,Staphylococcus aureus [6],1.8 µM
same,MIC,Escherichia coli [7],1.8 µM
CCCCCCCCC(=O)NCC(=O)N[C@@H](CC(C)C)C(=O)N[C@@H](CCCCN)C(=O)N[C@@H](CCCCN)C(=O)N[C@H](C(=O)N[C@H](C(=O)N[C@@H](CCCCN)C(=O)N[C@@H](CCCCN)C(=O)N[C@@H](CC(C)C)C(=O)N[C@@H](CC(C)C)C(N)=O)[C@@H](C)CC)[C@@H](C)CC (Nonanoyl-GLKKIIKKLL-NH2),MIC,[8],2.3 µM
same,MIC,Bacillus subtilis [9],3.83 µM
same,MIC,Pseudomonas aeruginosa [10],11.5 µM
same,MIC,Escherichia coli [11],76.6 µM
same,MIC,Zymomonas mobilis,11.5 µM
same,HC50 at 1 h,[12],61.9 µM
CC[C@@H](C)[C@@H](NC(=O)[C@H](CCCNC(=N)N)NC(=O)[C@H](CCCCN)NC(=O)[C@H](CC(C)C)NC(=O)[C@H](CC1CCCCC1)NC(=O)CN)C(=O)N[C@@H](CCCCN)C(=O)N[C@H](C(=O)N[C@@H](CC(C)C)C(=O)N[C@@H](CC1CCCCC1)C(N)=O)[C@@H](C)O,MIC,Staphylococcus aureus [13],56.8 µM
same,MIC,Enterococcus faecium,56.8 µM
CCCCCCCCCCC(=O)NCC(=O)N[C@@H](CC(C)C)C(=O)N[C@@H](CCCCN)C(=O)N[C@@H](CCCCN)C(=O)N[C@H](C(=O)N[C@H](C(=O)N[C@@H](CCCCN)C(=O)N[C@@H](CCCCN)C(=O)N[C@@H](CC(C)C)C(=O)N[C@@H](CC(C)C)C(N)=O)[C@@H](C)CC)[C@@H](C)CC (Undecanoyl-GLKKIIKKLL-NH2),MIC,[8],0.42 µM
same,MIC,Bacillus subtilis [9],5.83 µM
same,MIC,Pseudomonas aeruginosa [10],16.7 µM
same,MIC,Escherichia coli [11],25 µM
same,MIC,Zymomonas mobilis,12.5 µM
same,HC50 at 1 h,[12],62.9 µM
CC[C@H](C)[C@H](NC(=O)[C@H](CCCCN)NC(=O)[C@H](CC(C)C)NC(=O)[C@H](CC(C)C)NC(=O)CN)C(=O)N[C@H](C(=O)N[C@@H](CCCCN)C(=O)N[C@H](C(=O)N[C@@H](CC(C)C)C(=O)N[C@@H](CC(C)C)C(N)=O)[C@@H](C)O)[C@@H](C)CC (H-GLLKIIKTLL-NH2),HC50,[5],26.1 µM
same,MIC,Staphylococcus aureus [6],1.8 µM
same,MIC,Escherichia coli [7],1.8 µM
CC[C@H](C)[C@H](NC(=O)[C@H](CCCNC(=N)N)NC(=O)[C@H](CCCCN)NC(=O)[C@@H](CC(C)C)NC(=O)[C@H](CC(C)C)NC(=O)CNC(C)=O)C(=O)N[C@@H](CCCCN)C(=O)N[C@H](C(=O)N[C@H](CC(C)C)C(=O)N[C@H](CC(C)C)C(=O)NC(Cc1cn(CCCC[C@H](NC(C)=O)C(=O)NCC(=O)N[C@@H](CC(C)C)C(=O)N[C@@H](CC(C)C)C(=O)N[C@H](CCCCN)C(=O)N[C@@H](CCCNC(=N)N)C(=O)N[C@H](C(=O)N[C@H](CCCCN)C(=O)N[C@H](C(=O)N[C@@H](CC(C)C)C(=O)N[C@@H](CC(C)C)C(N)=O)[C@@H](C)O)[C@@H](C)CC)nn1)C(N)=O)[C@@H](C)O (some centres not stated),MIC,Staphylococcus aureus [1],32 µM
same,MIC,Bacillus subtilis [2],2 µM
same,MIC,Escherichia coli [3],4 µM
same,MIC,Pseudomonas aeruginosa [4],16 µM
same,MIC,Klebsiella pneumoniae,8 µM
same,MIC,Acinetobacter baumannii,2 µM
